Data reported in US12599601B2, “Antifungal composition containing carbazole compound as active ingredient” (KOREA UNIVERSITY RESEARCH AND BUSINESS FOUNDATION, priority 2019, dated 2026).
Values after ≈ are worked out from the molar mass of the structure shown. Values joined by “and” are separate entries in the source; they are usually repeats but may differ in a detail not shown here. Equal entries are not always repeated. Where two headings read alike, the source gives them in different places. Each block holds one compound with its values, some of them ahead of it.

Legend:
Candida albicans = assay: Inhibition of Candida growth, CLSI M27-A2 broth microdilution (absorbance, MIC); format: cell-based; settings: for MIC: Candida, Table 2; for absorbance of the Candida strain: 37° C., 24 hours, replicate wells
Description: An inhibitory effect on Candida growth was evaluated using the CLSI M27 method, which is known as a standard method for antifungal susceptibility testing. The evaluation was performed using the broth microdilution method according to the guidelines of CLSI M27-A2. As medium, 10.4 g of RPMI-MOPS, which is RPMI-1640 medium (Gibco, Gaithersburg, MD, USA) supplemented with L-glutamine, was dissolved in 900 mL of distilled water, and then 34.53 g of 0.165 M 3-N-morpholinopropanesulfonic acid MOPS) buffer was dissolved therein to reach a final volume of 1,000 mL, followed by pH adjustment to 7.0. Then, the solution was filtered through a 0.2 μm filter, thus preparing a medium.
The carbazole compound was dissolved in triple distilled water or dimethyl sulfoxide (DMSO) (Sigma) to a concentration of 20 mg/mL.
A Candida strain was incubated in yeast extract peptone dextrose (YPED) for 16 hours at 30° C., and adjusted to 1.0 turbidity (measured by a spectrophotometer at 600 nm) so that the fungal concentration was about 2.0×10^7 CFU/mL. The fungal solution was washed with triple distilled water, and then diluted again with RPMI-MOPS medium, and 100 μL of the fungal solution was dispensed into each of well Nos. 1 to 10 of a 96-well microplate (final cell concentration: 2.0×10^4 CFU/mL). In addition, 100 μL of the fungal solution was dispensed into well No. 11 (a growth control well), and only 100 μL of RPMI-MOPS medium was dispensed into well No. 12 (a medium control well). After completion of fungal inoculation, the microplate was incubated at 37° C. for 24 hours.
For evaluation of the results, data were obtained by measuring the absorbance using a microplate spectrophotometer to prevent errors by the inspector.
In the data, the concentration at which growth was inhibited based on the medium control well was determined as MIC (minimum inhibitory concentration), and the results are shown in Table 2 below and FIG. 1.

S. cerevisiae = assay: MIC test against budding yeast, same manner as Example 1-1; format: cell-based
Candida SC5314 [1] = assay: Extent of kidney infection in Candida-infected mice; format: in vivo; settings: Candida infection by tail vein injection; treated as in Example 3-1
Description: (§1) For Candida infection, SC5314, a wild-type strain, was used, and 6-week-old Balb/C female mice were used. The mice were divided into two groups, each consisting of 5 mice, and the survival rate thereof was monitored.
5.0×10^5 Candida cells were diluted in 200 μl of PBS and mice were infected with the dilution by tail vein injection. From day 1 after infection, the control group was inoculated with 200 μl of PBS by tail vein injection, the experimental groups were weighed and treated with molecule B (diluted in 100 μl of PBS) in an amount of 8 mg/kg by tail vein injection or treated with molecule C (diluted in 100 μl of PBS) in an amount of 16 mg/kg by tail vein injection.
After Candida infection performed by tail vein injection as described in Example 3-1, the mice showing the following conditions based on humane euthanasia standards were euthanized using CO2, and the kidneys were collected therefrom and the extents of infection thereof were compared: inability to eat food or drink water; abnormal breathing; dull and stiff hair; reduced movement; or bent posture or body tremor.

HeLa cells = settings: 16 hours treatment, MTS, tested 1 to 64 μg/ml
Description: The cytotoxicity of the carbazole compound to mammalian cells was evaluated using the human cervical cancer cell line HeLa.
Cells were seeded into a 96-well microplate at a density of 1.0×10^4 cells per well, and cultured in 10% FBS-containing DMEM for 24 hours at 37° C. Then, the medium was removed, each well was washed once with PBS and then treated with the synthesized compound diluted in DMEM serially from a concentration of 64 μg/ml to a concentration of 1 μg/ml. 16 hours after treatment with the compound, cytotoxicity was measured using MTS.

A. fumigatus = assay: MIC test against A. fumigatus, same manner as Example 1-1; format: cell-based
Candida SC5314 [2] = assay: Survival of candidiasis mouse models, compounds in drinking water; format: in vivo; settings: Balb/C mice infected by tail vein; drinking water with molecule B 16 μg/ml or molecule C 32 μg/ml daily; monitored 2 weeks; control 0% within 9 days
Excerpt: as §1
The control group of the experiment using drinking water was provided with normal drinking water daily after Candida infection performed by tail vein injection as described in Example 3-1, and the experimental groups were provided daily with drinking water treated with molecule B at a concentration of 16 μg/ml or with drinking water treated with molecule C at a concentration of 32 μg/ml. The survival rates of the mice were monitored daily for 2 weeks.

[3] = Candida albicans, read-out: MIC

Structure (SMILES): Nc1ccc(CCCN2CCN(CCCCN(c3ccccc3)c3ccccc3)CC2)cc1 [Molecule F]
MIC (Candida albicans; [3]): 32 µg/mL (≈ 72.3 µM)

Structure (SMILES): CN(C/C=C/c1ccccc1)CCCCn1c2ccccc2c2ccccc21 [Molecule D]
MIC (Candida albicans; [3]): 16 µg/mL (≈ 43.4 µM)

Structure (SMILES): Nc1ccc(CCCN2CCN(CCCCn3c4ccccc4c4cc(Br)ccc43)CC2)cc1 [Molecule B]
MIC against budding yeast S. cerevisiae (S. cerevisiae): 4 µg/mL (≈ 7.7 µM) | extent of kidney infection compared to control mice (Candida SC5314 [1]): very low extent of kidney infection | concentration up to which no toxicity to mammalian cells was shown (HeLa cells): ≤ 16000 ng/mL | MIC against Candida (Candida albicans): 8 µg/mL (≈ 15.4 µM) | absorbance of the Candida strain (Candida albicans; 0.125 μg/ml compound): 0.209 and 0.229 and 0.206 | absorbance of the Candida strain (Candida albicans; 0.25 μg/ml compound): 0.199 and 0.201 and 0.212 | absorbance of the Candida strain (Candida albicans; 0.5 μg/ml compound): 0.198 and 0.199 and 0.218 | absorbance of the Candida strain (Candida albicans; 1 μg/ml compound): 0.224 and 0.228 and 0.208 | absorbance of the Candida strain (Candida albicans; 2 μg/ml compound): 0.143 (2×) and 0.152 | absorbance of the Candida strain (Candida albicans; 4 μg/ml compound): 0.137 and 0.132 and 0.135 | absorbance of the Candida strain (Candida albicans; 8 μg/ml compound): 0.041 (2×) and 0.034 | absorbance of the Candida strain (Candida albicans; 16 μg/ml compound): 0.042 (2×) and 0.036 | absorbance of the Candida strain (Candida albicans; 32 μg/ml compound): 0.047 and 0.045 and 0.04 | absorbance of the Candida strain (Candida albicans; 64 μg/ml compound): 0.043 and 0.044 and 0.036 | MIC (Candida albicans): 8 µg/mL (≈ 15.4 µM) | MIC against A. fumigatus (A. fumigatus): 64 µg/mL (≈ 123 µM) | survival rate (Candida SC5314 [2]): 100%

Structure (SMILES): Nc1ccc(CCCN2CCN(CCCCn3c4ccccc4c4cc([N+](=O)[O-])ccc43)CC2)cc1 [Molecule G]
MIC (Candida albicans): 16 µg/mL (≈ 32.9 µM)

Structure (SMILES): Nc1ccc(CCCN2CCN(CCCCn3c4ccccc4c4cccc(Br)c43)CC2)cc1 [Molecule J]
MIC (Candida albicans): 32 µg/mL (≈ 61.6 µM)

Structure (SMILES): C(=C\c1ccccc1)/CN1CCN(CCCCCn2c3ccccc3c3ccccc32)CC1 [Molecule A]
MIC (Candida albicans; [3]): 32 µg/mL (≈ 73.1 µM)

Structure (SMILES): Nc1ccc(CCCN2CCN(CCCCn3c4ccccc4c4ccccc43)CC2)cc1 [Molecule C]
MIC against budding yeast S. cerevisiae (S. cerevisiae): 4 µg/mL (≈ 9.08 µM) | extent of kidney infection compared to control mice (Candida SC5314 [1]): very low extent of kidney infection | concentration up to which no toxicity to mammalian cells was shown (HeLa cells): ≤ 32000 ng/mL | MIC against Candida (Candida albicans): 16 µg/mL (≈ 36.3 µM) | absorbance of the Candida strain (Candida albicans; 0.125 μg/ml compound): 0.168 and 0.156 and 0.17 | absorbance of the Candida strain (Candida albicans; 0.25 μg/ml compound): 0.189 and 0.193 and 0.162 | absorbance of the Candida strain (Candida albicans; 0.5 μg/ml compound): 0.182 and 0.25 and 0.199 | absorbance of the Candida strain (Candida albicans; 1 μg/ml compound): 0.196 and 0.193 and 0.194 | absorbance of the Candida strain (Candida albicans; 2 μg/ml compound): 0.19 and 0.198 and 0.188 | absorbance of the Candida strain (Candida albicans; 4 μg/ml compound): 0.194 and 0.24 and 0.195 | absorbance of the Candida strain (Candida albicans; 8 μg/ml compound): 0.122 and 0.136 and 0.124 | absorbance of the Candida strain (Candida albicans; 16 μg/ml compound): 0.044 and 0.04 and 0.038 | absorbance of the Candida strain (Candida albicans; 32 μg/ml compound): 0.043 and 0.039 (2×) | absorbance of the Candida strain (Candida albicans; 64 μg/ml compound): 0.044 and 0.04 and 0.039 | MIC (Candida albicans): 16 µg/mL (≈ 36.3 µM) | MIC against A. fumigatus (A. fumigatus): 64 µg/mL (≈ 145 µM) | survival rate (Candida SC5314 [2]): 80%

Second part, the compound after the results:

MIC (Candida albicans; [3]): 32 µg/mL (≈ 70.4 µM)
Structure (SMILES): Nc1ccc(CCCCN2CCN(CCCCn3c4ccccc4c4ccccc43)CC2)cc1 [Molecule H]

MIC (Candida albicans; [3]): 32 µg/mL (≈ 72.8 µM)
Structure (SMILES): Nc1ccc(CCCC2CCN(CCCCn3c4ccccc4c4ccccc43)CC2)cc1 [Molecule I]

MIC (Candida albicans; [3]): 32 µg/mL (≈ 72.6 µM)
Structure (SMILES): Nc1cccc(CCCN2CCN(CCCCn3c4ccccc4c4ccccc43)CC2)c1 [Molecule E]
